According to ChEMBL document CHEMBL1144479, “Synthesis and antimicrobial studies on novel chloro-fluorine containing hydroxy pyrazolines” (2007):
Values after ≈ are worked out from the molar mass of the structure shown.

Key:
Staphylococcus aureus = assay: microbe, parasite or virus in culture; format: functional, ATCC 25923; conditions: for MIC: Staphylococcus aureus, ATCC 25923, 24 h
Description: Antibacterial activity against Staphylococcus aureus ATCC 25923 after 24 hrs by disc diffusion method

Escherichia coli = assay: microbe, parasite or virus in culture; format: functional, ATCC 25922; conditions: for MIC: Escherichia coli, ATCC 25922, 24 h
Description: Antibacterial activity against Escherichia coli ATCC 25922 after 24 hrs by disc diffusion method

Pseudomonas aeruginosa = assay: microbe, parasite or virus in culture; format: functional, ATCC 27853; conditions: for MIC: Pseudomonas aeruginosa, ATCC 27853, 24 h
Description: Antibacterial activity against Pseudomonas aeruginosa ATCC 27853 after 24 hrs by disc diffusion method

Klebsiella pneumoniae = assay: Antibacterial activity against Klebsiella pneumoniae after 24 hrs by disc diffusion method; format: functional; conditions: for MIC: Klebsiella pneumoniae, 24 h
Streptococcus pyogenes = assay: Antibacterial activity against Streptococcus pyogenes after 24 hrs by disc diffusion method; format: functional; conditions: for MIC: Streptococcus pyogenes, 24 h
Aspergillus flavus = assay: Antifungal activity against Aspergillus flavus NCIM no. 524 after 3 to 4 days by serial plate dilution method; format: functional; conditions: for MIC: Aspergillus flavus
Aspergillus fumigatus = assay: Antifungal activity against Aspergillus fumigatus NCIM no. 902 after 3 to 4 days by serial plate dilution method; format: functional; conditions: for MIC: Aspergillus fumigatus
Trichophyton benhamiae = assay: Antifungal activity against Trichophyton mentagrophytes after 3 to 4 days by serial plate dilution method; format: functional, Arthroderma benhamiae; conditions: for MIC: Trichophyton benhamiae
Talaromyces marneffei = assay: Antifungal activity against Penicillium marneffei after 3 to 4 days by serial plate dilution method; format: functional; conditions: for MIC: Talaromyces marneffei
Candida albicans = assay: Antifungal activity against Candida albicans NCIM no. 300 after 3 to 4 days by serial plate dilution method; format: functional; conditions: for MIC: Candida albicans

Row | Compound | inhibition zone (IZ) (Staphylococcus aureus) [mm] | inhibition zone (IZ) (Escherichia coli) [mm] | MIC (Escherichia coli) [µg/mL] | inhibition zone (IZ) (Pseudomonas aeruginosa) [mm] | inhibition zone (IZ) (Klebsiella pneumoniae) [mm] | MIC (Klebsiella pneumoniae) [µg/mL] | inhibition zone (IZ) (Streptococcus pyogenes) [mm] | MIC (Streptococcus pyogenes) [µg/mL] | inhibition zone (IZ) (Aspergillus flavus) [mm] | MIC (Aspergillus flavus) [µg/mL] | MIC (Staphylococcus aureus) [µg/mL] | MIC (Pseudomonas aeruginosa) [µg/mL] | MIC (Aspergillus fumigatus) [µg/mL] | inhibition zone (IZ) (Trichophyton benhamiae) [mm] | MIC (Trichophyton benhamiae) [µg/mL] | MIC (Talaromyces marneffei) [µg/mL] | MIC (Candida albicans) [µg/mL] | inhibition zone (IZ) (Aspergillus fumigatus) [mm] | inhibition zone (IZ) (Talaromyces marneffei) [mm] | inhibition zone (IZ) (Candida albicans) [mm]
1 | O=C(O)c1cn(C2CC2)c2cc(N3CCNCC3)c(F)cc2c1=O [CIPROFLOXACIN] | 19 | 18 | 12.5 (≈ 37.7 µM) | 25 | 20 | 6.25 (≈ 18.9 µM) | 20 | 12.5 (≈ 37.7 µM) | – | – | – | – | – | – | – | – | – | – | – | –
2 | COc1ccc(C2=NN(C(=O)COc3ccc(C)cc3)C(O)(c3cc(F)c(Cl)cc3Cl)C2)cc1OC (configuration not stated) | – | 16 | 12.5 (≈ 23.4 µM) | 23 | – | > 100 | – | > 100 | 10 | 25 (≈ 46.9 µM) | > 100 | 6.25 (≈ 11.7 µM) | > 100 | 23 | 6.25 (≈ 11.7 µM) | > 100 | > 100 | – | – | –
3 | Cc1ccc(OCC(=O)N2N=C(c3ccccc3)CC2(O)c2cc(F)c(Cl)cc2Cl)cc1 (configuration not stated) | 17 | 15 | 12.5 (≈ 26.4 µM) | 18 | 18 | 6.25 (≈ 13.2 µM) | 17 | 12.5 (≈ 26.4 µM) | 11 | 25 (≈ 52.8 µM) | 6.25 (≈ 13.2 µM) | 6.25 (≈ 13.2 µM) | 12.5 (≈ 26.4 µM) | 10 | 25 (≈ 52.8 µM) | 12.5 (≈ 26.4 µM) | 12.5 (≈ 26.4 µM) | 11 | 12 | 15
4 | Cc1ccc(OCC(=O)N2N=C(c3ccc(Cl)cc3)CC2(O)c2cc(F)c(Cl)cc2Cl)cc1 (configuration not stated) | 19 | 17 | 12.5 (≈ 24.6 µM) | 24 | 18 | 6.25 (≈ 12.3 µM) | 18 | 12.5 (≈ 24.6 µM) | 15 | 12.5 (≈ 24.6 µM) | 6.25 (≈ 12.3 µM) | 6.25 (≈ 12.3 µM) | 6.25 (≈ 12.3 µM) | 20 | 6.25 (≈ 12.3 µM) | 6.25 (≈ 12.3 µM) | 12.5 (≈ 24.6 µM) | 19 | 17 | 19
5 | OC(Cn1cncn1)(Cn1cncn1)c1ccc(F)cc1F [FLUCONAZOLE] | – | – | – | – | – | – | – | – | 18 | 12.5 (≈ 40.8 µM) | – | – | 6.25 (≈ 20.4 µM) | 20 | 6.25 (≈ 20.4 µM) | 6.25 (≈ 20.4 µM) | 6.25 (≈ 20.4 µM) | 22 | 21 | 20
6 | O=C(COc1ccc(Cl)cc1Cl)N1N=C(c2ccc(Cl)cc2)CC1(O)c1cc(F)c(Cl)cc1Cl (configuration not stated) | – | 10 | 25 (≈ 44.4 µM) | 23 | – | 6.25 (≈ 11.1 µM) | – | > 100 | 10 | 25 (≈ 44.4 µM) | > 100 | 6.25 (≈ 11.1 µM) | > 100 | 12 | 12.5 (≈ 22.2 µM) | > 100 | > 100 | – | – | –
7 | COc1ccc(C2=NN(C(=O)COc3ccc(Cl)cc3)C(O)(c3cc(F)c(Cl)cc3Cl)C2)cc1 (configuration not stated) | 19 | 18 | 12.5 (≈ 23.9 µM) | 22 | 19 | 6.25 (≈ 11.9 µM) | 18 | 12.5 (≈ 23.9 µM) | 18 | 12.5 (≈ 23.9 µM) | 6.25 (≈ 11.9 µM) | 6.25 (≈ 11.9 µM) | 6.25 (≈ 11.9 µM) | 19 | 6.25 (≈ 11.9 µM) | 6.25 (≈ 11.9 µM) | 6.25 (≈ 11.9 µM) | 21 | 20 | 19
8 | O=C(COc1ccc(Cl)cc1)N1N=C(c2ccc(Cl)cc2)CC1(O)c1cc(F)c(Cl)cc1Cl (configuration not stated) | 18 | 18 | 12.5 (≈ 23.7 µM) | 21 | 19 | 6.25 (≈ 11.8 µM) | 20 | 12.5 (≈ 23.7 µM) | 16 | 12.5 (≈ 23.7 µM) | 6.25 (≈ 11.8 µM) | 6.25 (≈ 11.8 µM) | 6.25 (≈ 11.8 µM) | 19 | 6.25 (≈ 11.8 µM) | 6.25 (≈ 11.8 µM) | 12.5 (≈ 23.7 µM) | 18 | 18 | 20
9 | O=C(COc1ccc(Cl)cc1Cl)N1N=C(c2ccccc2)CC1(O)c1cc(F)c(Cl)cc1Cl (configuration not stated) | 15 | 17 | 12.5 (≈ 23.7 µM) | 19 | 16 | 6.25 (≈ 11.8 µM) | 15 | 12.5 (≈ 23.7 µM) | 15 | 12.5 (≈ 23.7 µM) | 6.25 (≈ 11.8 µM) | 6.25 (≈ 11.8 µM) | 12.5 (≈ 23.7 µM) | 11 | 25 (≈ 47.3 µM) | 6.25 (≈ 11.8 µM) | 25 (≈ 47.3 µM) | 13 | 15 | 10
10 | O=C(COc1ccc(Cl)cc1)N1N=C(c2ccc(Cl)cc2Cl)CC1(O)c1cc(F)c(Cl)cc1Cl (configuration not stated) | – | – | > 100 | – | – | > 100 | – | > 100 | – | > 100 | > 100 | > 100 | > 100 | – | – | 25 (≈ 44.4 µM) | > 100 | – | 10 | –
11 | O=C(COc1ccc(Cl)cc1Cl)N1N=C(c2ccc(Cl)cc2Cl)CC1(O)c1cc(F)c(Cl)cc1Cl (configuration not stated) | – | 17 | 12.5 (≈ 20.9 µM) | 10 | – | > 100 | – | > 100 | 12 | 25 (≈ 41.9 µM) | > 100 | 25 (≈ 41.9 µM) | > 100 | 10 | 25 (≈ 41.9 µM) | > 100 | > 100 | – | – | –
12 | COc1ccc(C2=NN(C(=O)COc3ccc(Cl)cc3Cl)C(O)(c3cc(F)c(Cl)cc3Cl)C2)cc1 (configuration not stated) | 16 | 16 | 12.5 (≈ 22.4 µM) | 21 | 16 | 12.5 (≈ 22.4 µM) | 19 | 12.5 (≈ 22.4 µM) | 16 | 12.5 (≈ 22.4 µM) | 6.25 (≈ 11.2 µM) | 6.25 (≈ 11.2 µM) | 6.25 (≈ 11.2 µM) | 18 | 6.25 (≈ 11.2 µM) | 6.25 (≈ 11.2 µM) | 17 (≈ 30.5 µM) | 19 | 20 | 12.5
13 | COc1ccc(C2=NN(C(=O)COc3ccc(C)cc3)C(O)(c3cc(F)c(Cl)cc3Cl)C2)cc1 (configuration not stated) | – | – | > 100 | 10 | – | > 100 | – | > 100 | – | > 100 | > 100 | 25 (≈ 49.7 µM) | 12.5 (≈ 24.8 µM) | 10 | 25 (≈ 49.7 µM) | 12.5 (≈ 24.8 µM) | > 100 | 12 | 12 | –
14 | Cc1ccc(OCC(=O)N2N=C(c3ccc(Cl)cc3Cl)CC2(O)c2cc(F)c(Cl)cc2Cl)cc1 (configuration not stated) | 19 | 15 | 12.5 (≈ 23.1 µM) | 24 | 18 | 6.25 (≈ 11.5 µM) | 18 | 12.5 (≈ 23.1 µM) | 16 | 12.5 (≈ 23.1 µM) | 6.25 (≈ 11.5 µM) | 6.25 (≈ 11.5 µM) | 6.25 (≈ 11.5 µM) | 18 | 6.25 (≈ 11.5 µM) | 6.25 (≈ 11.5 µM) | 6.25 (≈ 11.5 µM) | 20 | 18 | 19
15 | COc1ccc(C2=NN(C(=O)COc3ccc(Cl)cc3Cl)C(O)(c3cc(F)c(Cl)cc3Cl)C2)cc1OC (configuration not stated) | – | 9 | 25 (≈ 42.5 µM) | – | – | > 100 | – | > 100 | – | > 100 | > 100 | > 100 | 12.5 (≈ 21.2 µM) | – | > 100 | 25 (≈ 42.5 µM) | > 100 | 14 | 12 | –
16 | COc1ccc(C2=NN(C(=O)COc3ccc(Cl)cc3)C(O)(c3cc(F)c(Cl)cc3Cl)C2)cc1OC (configuration not stated) | – | 8 | 25 (≈ 45.1 µM) | – | – | > 100 | 10 | 25 (≈ 45.1 µM) | 9 | 25 (≈ 45.1 µM) | > 100 | > 100 | > 100 | – | > 100 | > 100 | 25 (≈ 45.1 µM) | – | – | 10
17 | O=C(COc1ccc(Cl)cc1)N1N=C(c2ccccc2)CC1(O)c1cc(F)c(Cl)cc1Cl (configuration not stated) | 14 | – | > 100 | – | 10 | 25 (≈ 50.6 µM) | – | > 100 | 9 | 25 (≈ 50.6 µM) | 12.5 (≈ 25.3 µM) | > 100 | 12.5 (≈ 25.3 µM) | 7 | 25 (≈ 50.6 µM) | 25 (≈ 50.6 µM) | > 100 | 14 | 10 | –
